From patent US20060094693A1, “Methods and compositions for treating glucose-associated conditions, metabolic syndrome, dyslipidemias and other conditions” (Point Therapeutics, Inc., priority 2004, published 2006)

Key:
[1] = target: T1, soluble recombinant human DPP-IV (Homo sapiens, UniProt P27487); assay: In vitro assay of enzymatic activity of recombinant soluble DPP-IV and inhibition by amino boronic dipeptides; format: biochemical; settings: assayed 3 minutes, 78 minutes and 16 hours after addition of Ala-Pro-AFC
T1 construct: immunoglobulin kappa light chain secretion signal (pSecTag2-B) (N, cleaved yes); made in house; host or cells: 293T cells, transient transfection; unpurified culture supernatant used
T1 sequence (P27487 39-766 limits assumed): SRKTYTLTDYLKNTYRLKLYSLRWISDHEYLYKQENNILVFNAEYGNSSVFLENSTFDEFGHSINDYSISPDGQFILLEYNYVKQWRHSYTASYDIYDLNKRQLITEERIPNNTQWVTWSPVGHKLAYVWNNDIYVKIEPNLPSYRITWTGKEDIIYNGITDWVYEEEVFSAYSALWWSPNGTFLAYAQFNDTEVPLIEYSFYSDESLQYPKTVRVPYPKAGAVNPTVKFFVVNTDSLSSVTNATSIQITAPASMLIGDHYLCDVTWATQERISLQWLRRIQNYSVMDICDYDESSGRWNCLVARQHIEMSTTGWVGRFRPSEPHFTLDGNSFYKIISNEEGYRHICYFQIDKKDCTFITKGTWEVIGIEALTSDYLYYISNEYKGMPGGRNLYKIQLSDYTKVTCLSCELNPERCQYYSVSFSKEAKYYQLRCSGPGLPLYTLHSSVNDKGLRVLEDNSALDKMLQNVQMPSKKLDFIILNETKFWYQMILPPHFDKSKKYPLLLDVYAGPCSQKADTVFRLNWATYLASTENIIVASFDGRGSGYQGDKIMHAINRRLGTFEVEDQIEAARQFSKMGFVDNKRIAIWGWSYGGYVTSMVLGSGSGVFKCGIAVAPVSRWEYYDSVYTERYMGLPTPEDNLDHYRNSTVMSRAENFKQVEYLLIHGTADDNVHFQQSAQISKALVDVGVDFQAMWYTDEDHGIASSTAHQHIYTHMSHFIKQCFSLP
Text: Production of soluble recombinant human DPP-IV. Based on information on the N-terminus of serum DPP-IV (15), a truncated DPP-IV was engineered in which a signal/leader sequence was joined to the residue in DPP-IV corresponding to the N-terminus of serum DPP-IV to allow secretion. The cDNA encoding the desired truncated human DPP-IV dimer enzyme was engineered into the mammalian secretion vector pSecTag2 (Cat# V900-20, InVitrogen Corporation). The vector, available in A, B or C versions, representing three possible phases for gene fusion, contained an immunoglobulin-kappa light chain secretion signal followed by a selection of restriction sites for gene insertion. The fusion required engineering a restriction site upstream of the chosen fusion amino acid in the 5′ end of the DPP-IV dimer enzyme nucleic acid in phase with the chosen restriction site (Sfi I) in the vector secretion sequence. The chosen fusion amino acid in the 5′ end of the DPP-IV (Ser39) was 3′ of the trans-membrane anchoring domain. The pSecTag2 version B and its Sfi I restriction site was chosen for the fusion because it minimizes the additional N-terminal, vector-encoded residues in the mature secreted protein.
Construction of the fusion was as follows. First, total RNA was isolated from the Caco-2 colorectal carcinoma cell line (ATCC HTB-37) by standard Trizol/phenol/chloroform methodology. The purified RNA (approx. 2.5 μg in a 20 μl reaction) was used to make cDNA using oligo-dT primer and a commercial reverse transcription (RT) kit (InVitrogen). […] The following thermal cycler program was used: 94° C. for 45 sec. initial denaturation, then 30 cycles of 94° C., 10 sec.; 48° C., 6 sec.; 60° C., 4 min; followed by 5-min. extension at 72° C. after cycling.
DNA from the plasmid encoding DPP-IV dimer enzyme was prepared on an approximately 400 μg scale from overnight 30 ml cultures in Luria broth with 100 μg ampicillin per ml using a commercial kit (Qiagen Maxiprep Kit).
In vitro assay of enzmatic activity ofrecombinant soluble DPP-IV and inhibition by amino boronic dipeptides. The assay reaction mixture consisted of 135 μl 50 mM HEPES/Na buffer pH 7.6, 140 mM NaCl, 10-15 gl enzyme-containing culture supernatant, dipeptide substrate Ala-Pro-(7-amino-4-trifluoromethyl coumarin) (Ala-Pro-AFC; Enzyme System Products, Dublin, Calif.) at typically 0.1-1 mM added from a 100 or 400 mM stock in dimethyl formamide. The reaction mixture was incubated at room temperature, and production of the fluorescent AFC product was measured in a fluorometer (excitation, 400 nm; emission 505 nm), either by continuous monitoring or after termination with a one to one-tenth volume of 1 -M sodium acetate, pH 4.5. Fluorometric reading were made with a Molecular Dynamics Spectra Max GeminiXS capable of reading 96-well microtiter plates. The inhibitory activity of amino boronic dipeptides was investigated by preincubation of assay reaction mixtures with varying concentrations of each compound for 10 minutes before the addition of the substrate Ala-Pro-AFC.

serum DPP-IV [2] = target: T2, serum DPP-IV (Mus musculus, UniProt P28843); assay: Serum DPP-IV inhibition in vivo after oral gavage (Example 2); design: species or system BALB/c mice
T2 construct: from tissue; host or cells: serum of BALB/c mice dosed orally
T2 sequence (P28843 37-760 limits assumed): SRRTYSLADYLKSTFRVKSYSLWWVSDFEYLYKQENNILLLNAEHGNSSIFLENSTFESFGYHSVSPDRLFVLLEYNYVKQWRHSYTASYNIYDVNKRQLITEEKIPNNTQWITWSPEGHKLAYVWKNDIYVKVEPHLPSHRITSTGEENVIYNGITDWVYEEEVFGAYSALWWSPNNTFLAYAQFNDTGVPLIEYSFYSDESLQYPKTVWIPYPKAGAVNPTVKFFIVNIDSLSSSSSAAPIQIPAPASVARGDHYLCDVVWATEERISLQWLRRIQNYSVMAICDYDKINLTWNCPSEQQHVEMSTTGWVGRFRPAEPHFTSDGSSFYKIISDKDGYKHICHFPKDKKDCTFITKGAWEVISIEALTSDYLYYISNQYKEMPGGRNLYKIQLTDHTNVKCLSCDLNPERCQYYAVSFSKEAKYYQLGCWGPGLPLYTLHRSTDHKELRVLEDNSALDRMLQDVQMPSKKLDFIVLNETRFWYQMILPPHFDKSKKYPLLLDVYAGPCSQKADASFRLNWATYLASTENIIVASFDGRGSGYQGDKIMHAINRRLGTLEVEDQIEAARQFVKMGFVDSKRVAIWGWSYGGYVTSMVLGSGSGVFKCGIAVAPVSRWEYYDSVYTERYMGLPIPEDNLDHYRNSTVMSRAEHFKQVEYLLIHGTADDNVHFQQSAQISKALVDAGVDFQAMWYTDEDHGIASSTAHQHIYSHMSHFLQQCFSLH
Method: Assay of serum DPP-IV inhibition in vivo. […] DPP-IV activity was determined by reaction of 10 μl serum with 90 μl of 0.11 mM Ala-Pro-AFC (Enzyme System Products, Dublin, Calif.) in 50 mM HEPES/Na buffer pH 7.6, 140 mM NaCl.

serum DPP-IV [3] = target: T2, serum DPP-IV; assay: Serum DPP-IV activity 2 hours after oral amino boronic dipeptides (Example 4); format: in vivo, BALB/c mice; settings: 20 and 200 μg doses
Method: (§1) Assay ofserum DPP-IV inhibition and KC/CXCL1 levels in vivo. […] Each mouse received a single administration of each amino boronic dipeptide or saline, and blood samples were withdrawn from mice 2 hours later.
Serum DPP-IV activity was determined by reaction of a 10 μl volume of serum with 0.1 mM Ala-Pro-AFC (Enzyme System Products, Dublin, Calif.) in a 100 μl volume of 50 mM HEPES/Na buffer pH 7.6, 140 mM NaCl. […] Serum DPP-IV activity was expressed as fluorescent units (FU).

serum KC/CXCL1 = assay: Serum KC/CXCL1 levels in vivo (ELISA); design: species or system BALB/c mice; settings: 0.2-200 μg/mouse oral, 2 hours
Method: as §1
Serum concentration of mouse KC/CXCL1 was determined by Quantikine enzyme-linked immunosorbent assay (ELISA; R&D Systems, Minneapolis, Minn.) according to the manufacturer's instructions. ELISA was performed in duplicate for each sample.

in vivo = settings: Lewis, rat, in vivo
Method: (§2) Serum DPP-IV inhibition and observation of acute toxicity of amino boronic dipeptides in Lewis rats. […] After observations were completed or at the onset of a moribund state, humane euthanasia was performed by asphyxiation in 100% CO2.

Lewis rats = assay: in vivo; settings: Lewis, rat, in vivo, 5 days
Method: as §2

ob/ob mice = assay: Mouse oral glucose tolerance test (OGTT); format: in vivo
Method: Protocol for mouse oral glucose tolerance test (OGTT). The day of oral-glucose challenge was defined as day 0. […] Agents were administered by oral gavage. Mice were restricted to a diet of 50% of their individual calculated food intake from day −1 onwards. On day 0, blood glucose was measured at […]. immediately followed by drug administration. At time point 0, glucose was administered by oral gavage (1g/kg), and blood glucose was measured at time points 0, 30, 60, 120 and 240 minutes. Means±SE were calculated from the data of individual mice in drug-treatment groups 1 and 2.

Zucker fa/fa rats [4] = assay: Rat oral glucose tolerance test (glucose, insulin, GLP-1); format: in vivo; settings: 10 μmol/kg oral
Text: Protocol for rat oral glucose tolerance test (OG7T). […] On days −11 to −8, rats were fitted with intra-arterial catheters under light isoflurane anesthesia. […] From 12:00 a.m.

[5] = tested on: Zucker Diabetic Fatty (ZDF) rats; assay: 6 week glycemic control study in Zucker Diabetic Fatty rats; format: in vivo
Method: The design of the 6 week long study is depicted in FIG. 8. 60 male Zucker Diabetic Fatty (ZDF) rats (5 weeks of age) were obtained from Charles River Labs. The animals are housed singly and allowed to acclimatize for 1 week before the initiation of the study. 24-hour food intake and body weight was measured gravimetrically twice weekly from the start of housing. HbA1C levels were measured at Day 0, 7, 14, 28 and 46. OGTT was administered on Day 2-3, 15 minutes after the administration of the drugs. OGTT was administered again at the end of the study but in this case, drugs were given 15 hours prior to the OGTT. The 24-hour glucose profile was monitored at day 14-15 of the study.
The insulin sensitivity index was calculated at the termination of the study according to the method described by Matsuda and DeFronzo (Diabetes Care. 1999 Sep.;22(9):1462-70).

Zucker fa/fa rats [6] = assay: Single oral dose before oral glucose challenge, Zucker Fa/Fa rats (Example 10); format: in vivo; settings: single oral dose 15 minutes prior to oral glucose
Text: The data shown in FIG. 15 are mean values from 6 rats per treatment.

DIO rats = assay: Single oral dose before oral glucose challenge, DIO rats (Example 10); format: in vivo; settings: single oral dose 15 minutes prior to oral glucose
Text: The data shown in FIG. 16A are mean values from 10 rats per treatment.
The data shown in FIG. 16B are mean values from 10 rats per treatment.

N[C@@H](CCC(=O)O)C(=O)N1CCC[C@H]1B(O)O [Glu-boroPro, glutamic acid boroproline]
persistence of DPP-IV inhibition after preincubation [1]: sustained DPP-IV inhibition
ID50 (dose reducing serum DPP-IV activity by 50% of baseline) (serum DPP-IV [2]; BALB/c mice, single oral dose, 2 hours): 1 μg per mouse
serum DPP-IV inhibition persisting (serum DPP-IV [2]; single oral 5 μg or 20 μg per mouse, until at least 6 hours): greater than 80%
serum DPP-IV activity (serum DPP-IV [3]): maximally inhibited serum DPP-IV activity
serum levels of KC/CXCL1 (serum KC/CXCL1): failed to affect serum levels of KC/CXCL1 at any of the doses tested
MTD at 5 days (in vivo): 15 mg/kg
MTD (maximum tolerated dose) (Lewis rats): 15,000 μg/kg
glucose excursion post oral glucose challenge (ob/ob mice; 1.0 μmol/kg oral, 15 minutes prior to glucose): reduced
anti-glycemic effect, area under the blood glucose curve (ob/ob mice; single 1.0 μmol/kg dose): significant
blood glucose excursion (Zucker fa/fa rats [4]; 15 min before glucose 2 g/kg): reduced
blood plasma level of GLP-1 (Zucker fa/fa rats [4]; after oral glucose challenge): increased
blood plasma level of insulin (Zucker fa/fa rats [4]; after oral glucose challenge): increased
AUC of 24 hour glucose profile ([5]; 10 μmole/kg, day 14-15): achieve significance
triglyceride (TG) lowering ([5]; 3 micromole/kg, 46 days of treatment): significant improvement
food intake over time ([5]; 10 micromole/kg): apparent slight decrease in food intake
triglyceride (TG) lowering ([5]; 10 micromole/kg, 46 days of treatment): significant improvement
HbA1C level compared to vehicle ([5]; 10 micromole/kg, Day 46): significant reduction
OGTT glucose levels compared to vehicle ([5]; 10 micromole/kg, OGTT 15 hours after drug, end of study): significant reduction in glucose levels
24-hour glucose profile ([5]; 10 micromole/kg, day 14-15): improved compared to the metformin and the NVP-LAF237 groups
rate of increase in HbA1C over time ([5]; 10 micromoles/kg, Day 0 to Day 46): decline in the rate of increase in HbA1C was most prominent
free fatty acids (FFA) ([5]; 46 days of treatment, compared to vehicle): trend towards free fatty acids (FFA) reduction but this did not reach significance
insulin response (Zucker fa/fa rats [6]): improved insulin response
insulin response (DIO rats): improved insulin response
insulin secretion calculated from AUC (DIO rats): increased insulin secretion
